Source: patent publication US20180200257A1, “METHODS FOR THE TREATMENT OF INFLAMMATORY DISORDERS” (Galapagos NV, priority 2015, published 2018)

System: Subjects With Active Crohn's Disease With Evidence of Mucosal Ulceration
Experiment: Study 3 - Crohn's Disease Activity Index (CDAI) scores
Format: in vivo, human
Text: Double-Blind, Randomized, Placebo-Controlled, Multi-Centre Study to Investigate the Efficacy and Safety of Compound 1 in Subjects With Active Crohn's Disease With Evidence of Mucosal Ulceration. This is a double-blind, randomized, placebo-controlled, multi-centre Phase 2 study to investigate the efficacy and safety of Compound 1 administered once daily for the treatment of active CD with evidence of mucosal ulceration. The pharmacokinetics (including a PK substudy) and pharmacodynamics of Compound 1 and metabolite in CD will also be characterised. A total of 180 eligible subjects will be randomized to receive Compound 1 or placebo in addition to their stable background treatment (eg, corticosteroids, aminosalicylates, or CD-related antibiotics). The study will consist of 2 parts, with total treatment duration of 20 weeks. Randomization in Part 1 will be stratified according the subject's previous anti-TNF exposure/response, CRP level at Screening, and oral corticosteroid use at visit Day −1. After the first 10 weeks of treatment in Part 1, patients will be re-randomized for Part 2 as shown in the diagram below and will be stratified according to the subject's clinical response, previous anti-TNF exposure/response, and oral corticosteroid use at visit Day -1. [table] The Crohn's disease activity index (CDAI) is a numerical calculation derived from the sum of products from a list of 8 items (see Table CXXVI below), and multiplied by weighting factors for each item to define the severity of “disease activity” in patients with Crohn's disease (CD)[1]. Essentially, the CDAI represents a numerical estimation of a physician's interpretation of patient symptoms. Index values of 150 and below are associated with quiescent or non-active disease (i.e. “remission”). Values over 150 are indicative of active disease, and over 450, extremely severe disease.% In the present study, clinical remission is defined as a CDAI score of <150 points, and a clinical response is defined as a decrease in CDAI score of at least 100 points.

[1] = 200 mg, LOCF, baseline corticosteroid use: with steroids
[2] = 200 mg, LOCF, baseline corticosteroid use: without steroids
[3] = 200 mg, week 10, Anti-TNF Naïve
[4] = 200 mg, week 10, Anti-TNF experienced non-responders
[5] = 200 mg, week 10, LOCF, screening CRP ≤ 10 ml/L
[6] = 200 mg, week 10, LOCF, screening CRP ≥ 10 mg/L
[7] = initial 200 mg non-responders, continued 200 mg, week 10
[8] = initial 200 mg non-responders, continued 200 mg, week 20
[9] = initial 200 mg non-responders, to placebo, week 10
[10] = initial 200 mg non-responders, to placebo, week 20
[11] = initial 200 mg responders, continued 200 mg, week 10
[12] = initial 200 mg responders, continued 200 mg, week 20
[13] = initial 200 mg responders, to 100 mg, week 10
[14] = initial 200 mg responders, to 100 mg, week 20
[15] = initial 200 mg responders, to placebo, week 10
[16] = initial 200 mg responders, to placebo, week 20
[17] = initial placebo non-responders switching to 100 mg at week 10, week 20

SMILES: O=C(Nc1nc2cccc(-c3ccc(CN4CCS(=O)(=O)CC4)cc3)n2n1)C1CC1 [Compound 1, cyclopropanecarboxylic acid {5-[4-(1,1-dioxo-thiomorpholin-4-ylmethyl)-phenyl]-[1,2,4]triazolo[1,5-a]pyridin-2-yl}-amide]
- 70 point clinical response (CDAI improvement ≥ 70 points) [1]: 70%
- 100 point clinical response (CDAI improvement ≥ 100 points) [1]: 60%
- Clinical Remission (CDAI < 150) [1]: 52%
- 70 point clinical response (CDAI improvement ≥ 70 points) [2]: 72%
- 100 point clinical response (CDAI improvement ≥ 100 points) [2]: 71%
- Clinical Remission (CDAI < 150) [2]: 48%
- 70 point clinical response (CDAI improvement ≥ 70 points) [3]: 81%
- 100 point clinical response (CDAI improvement ≥ 100 points), LOCF [3]: 74%
- Clinical Remission (CDAI < 150), LOCF [3]: 65%
- 70 point clinical response (CDAI improvement ≥ 70 points) [4]: 63%
- 100 point clinical response (CDAI improvement ≥ 100 points), LOCF [4]: 59%
- Clinical Remission (CDAI < 150), LOCF [4]: 38%
- 70 point clinical response (CDAI improvement ≥ 70 points) [5]: 73%
- 100 point clinical response (CDAI improvement ≥ 100 points) [5]: 66%
- Clinical Remission (CDAI < 150) [5]: 46%
- 70 point clinical response (CDAI improvement ≥ 70 points) [6]: 69%
- 100 point clinical response (CDAI improvement ≥ 100 points) [6]: 65%
- Clinical Remission (CDAI < 150) [6]: 56%
- 100 point clinical response (CDAI improvement ≥ 100 points), LOCF (200 mg, week 10, overall): 66%
- 100 point clinical response (CDAI improvement ≥ 100 points), NRI (200 mg, week 10, overall): 60%
- Clinical Remission (CDAI < 150), LOCF (200 mg, week 10, overall): 50%
- Clinical Remission (CDAI <150), NRI (200 mg, week 10, overall): 48%
- Clinical Remission (CDAI < 150), LOCF [7]: 16%
- Clinical Remission (CDAI <150), NRI [7]: 16%
- Clinical Remission (CDAI <150), OC [7]: 16%
- Clinical Response (CDAI ≥70), LOCF [7]: 44%
- Clinical Response (CDAI ≥70), NRI [7]: 44%
- Clinical Response (CDAI ≥70), OC [7]: 44%
- Clinical Response (CDAI ≥100), LOCF [7]: 32%
- Clinical Response (CDAI ≥100), NRI [7]: 32%
- Clinical Response (CDAI ≥ 100), OC [7]: 32%
- Clinical Remission (CDAI < 150), LOCF [8]: 28%
- Clinical Remission (CDAI <150), NRI [8]: 24%
- Clinical Remission (CDAI <150), OC [8]: 30%
- Clinical Response (CDAI ≥70), LOCF [8]: 44%
- Clinical Response (CDAI ≥70), NRI [8]: 40%
- Clinical Response (CDAI ≥70), OC [8]: 50%
- Clinical Response (CDAI ≥100), LOCF [8]: 36%
- Clinical Response (CDAI ≥100), NRI [8]: 32%
- Clinical Response (CDAI ≥ 100), OC [8]: 40%
- Clinical Remission (CDAI < 150), LOCF [9]: 0%
- Clinical Remission (CDAI <150), NRI [9]: 0%
- Clinical Remission (CDAI <150), OC [9]: 0%
- Clinical Response (CDAI ≥70), LOCF [9]: 22%
- Clinical Response (CDAI ≥70), NRI [9]: 11%
- Clinical Response (CDAI ≥70), OC [9]: 13%
- Clinical Response (CDAI ≥100), LOCF [9]: 22%
- Clinical Response (CDAI ≥100), NRI [9]: 11%
- Clinical Response (CDAI ≥ 100), OC [9]: 13%
- Clinical Remission (CDAI < 150), LOCF [10]: 33%
- Clinical Remission (CDAI <150), NRI [10]: 33%
- Clinical Remission (CDAI <150), OC [10]: 38%
- Clinical Response (CDAI ≥70), LOCF [10]: 44%
- Clinical Response (CDAI ≥70), NRI [10]: 44%
- Clinical Response (CDAI ≥70), OC [10]: 50%
- Clinical Response (CDAI ≥100), LOCF [10]: 33%
- Clinical Response (CDAI ≥100), NRI [10]: 33%
- Clinical Response (CDAI ≥ 100), OC [10]: 38%
- Clinical Remission (CDAI < 150), LOCF [11]: 67%
- Clinical Remission (CDAI <150), NRI [11]: 63%
- Clinical Remission (CDAI <150), OC [11]: 70%
- Clinical Response (CDAI decrease ≥100 points), OC [11]: 93%
- Clinical Response (CDAI ≥70), LOCF [11]: 100%
- Clinical Response (CDAI ≥70), NRI [11]: 90%
- Clinical Response (CDAI ≥70), OC [11]: 100%
- Clinical Response (CDAI ≥100), LOCF [11]: 93%
- Clinical Response (CDAI ≥100), NRI [11]: 83%
- Clinical Remission (CDAI < 150), LOCF [12]: 57%
- Clinical Remission (CDAI <150), NRI [12]: 50%
- Clinical Remission (CDAI <150), OC [12]: 58%
- Clinical Response (CDAI decrease ≥100 points), OC [12]: 77%
- Clinical Response (CDAI ≥70), LOCF [12]: 80%
- Clinical Response (CDAI ≥70), NRI [12]: 70%
- Clinical Response (CDAI ≥70), OC [12]: 81%
- Clinical Response (CDAI ≥100), LOCF [12]: 77%
- Clinical Response (CDAI ≥100), NRI [12]: 67%
- Clinical Remission (CDAI < 150), LOCF [13]: 87%
- Clinical Remission (CDAI <150), NRI [13]: 87%
- Clinical Remission (CDAI <150), OC [13]: 87%
- Clinical Response (CDAI decrease ≥100 points), OC [13]: 97%
- Clinical Response (CDAI ≥70), LOCF [13]: 100%
- Clinical Response (CDAI ≥70), NRI [13]: 100%
- Clinical Response (CDAI ≥70), OC [13]: 100%
- Clinical Response (CDAI ≥100), LOCF [13]: 97%
- Clinical Response (CDAI ≥100), NRI [13]: 97%
- Clinical Remission (CDAI < 150), LOCF [14]: 63%
- Clinical Remission (CDAI <150), NRI [14]: 60%
- Clinical Remission (CDAI <150), OC [14]: 75%
- Clinical Response (CDAI decrease ≥100 points), OC [14]: 92%
- Clinical Response (CDAI ≥70), LOCF [14]: 83%
- Clinical Response (CDAI ≥70), NRI [14]: 77%
- Clinical Response (CDAI ≥70), OC [14]: 96%
- Clinical Response (CDAI ≥100), LOCF [14]: 80%
- Clinical Response (CDAI ≥100), NRI [14]: 73%
- Clinical Remission (CDAI < 150), LOCF [15]: 79%
- Clinical Remission (CDAI <150), NRI [15]: 71%
- Clinical Remission (CDAI <150), OC [15]: 77%
- Clinical Response (CDAI decrease ≥100 points), OC [15]: 92%
- Clinical Response (CDAI ≥70), LOCF [15]: 100%
- Clinical Response (CDAI ≥70), NRI [15]: 93%
- Clinical Response (CDAI ≥70), OC [15]: 100%
- Clinical Response (CDAI ≥100), LOCF [15]: 93%
- Clinical Response (CDAI ≥100), NRI [15]: 86%
- Clinical Remission (CDAI < 150), LOCF [16]: 79%
- Clinical Remission (CDAI <150), NRI [16]: 71%
- Clinical Remission (CDAI <150), OC [16]: 77%
- Clinical Response (CDAI decrease ≥100 points), OC [16]: 85%
- Clinical Response (CDAI ≥70), LOCF [16]: 93%
- Clinical Response (CDAI ≥70), NRI [16]: 86%
- Clinical Response (CDAI ≥70), OC [16]: 92%
- Clinical Response (CDAI ≥100), LOCF [16]: 86%
- Clinical Response (CDAI ≥100), NRI [16]: 79%
- Clinical Remission (CDAI < 150), LOCF [17]: 32%
- Clinical Remission (CDAI <150), NRI [17]: 32%
- Clinical Remission (CDAI <150), OC [17]: 33%
- Clinical Response (CDAI ≥70), LOCF [17]: 68%
- Clinical Response (CDAI ≥70), NRI [17]: 68%
- Clinical Response (CDAI ≥70), OC [17]: 71%
- Clinical Response (CDAI ≥100), LOCF [17]: 59%
- Clinical Response (CDAI ≥100), NRI [17]: 59%
- Clinical Response (CDAI ≥ 100), OC [17]: 62%
